Columns and labels:
Rodent Hot Plate Test = format: in vivo, male Sprague-Dawley rats
Method: The degree of thermal analgesia obtained is determined using the "rodent hot plate test" (RHP). The RHP system is designed to detect and evaluate agents which elevate the threshold for the perception of pain. Classically, this method has been utilized primarily to evaluate opioid (narcotic) analgesic agents, such as morphine.
Male Sprague-Dawley rats (Charles River Breeding Laboratories Inc.) weighing between 100 and 125 grams upon arrival are used to evaluate the compounds of the present invention. Animals are double housed in stainless steel cages, and are fed Purina Rat Chow and tap water ad libitum. The animals are food fasted the afternoon proceeding the day of the study, and food is returned 5 hours post-treatment. Animals not being dosed by oral gavage are not fasted.
The apparatus for evaluating analgesic activity consists of an insulated copper hot plate whose surface is maintained at 55°±0.5° C. by a circulating water bath. A bottomless glass container (12" (30 cm) tall by 8" (20 cm) diameter) is used to restrict the animal to a defined area of the hot plate. After dosing, the animal is placed through the top opening of the container, and a stop watch is started when the animal makes contact with the plate. The stop-watch is stopped upon either of the following visually observed end points: (1) licking or biting of either hind paw, or (2) jumping. If the jump is not successful but both hind paws leave the surface of the plate in an effort to jump, this is considered jumping. The stop-watch is stopped at the end point and the animal is immediately removed from the hot plate. The time (latency) between the initial contact of the animal on the hot plate and the endpoint is recorded.
Prior to dosing, animals are tested on the hot plate. This is denoted as pretest or base line latency. Usually, the animals are dosed by oral gavage, using a 1 cubic cm glass syringe connected to a size 8 french catheter. The dose volume is 5 ml/kg. On occasion, the animals are dosed by either subcutaneous administration or intravenous injection. Using the subcutaneous administration, a 1 ml tuberculin syringe is connected to a 25 gauge 5/8 inch needle, and injected under the skin in the neck or back region. For intravenous dosing, a 1 ml tuberculin syringe is connected to a 25 gauge 3/4 inch winged infusion set, and injected into the tail vein. The dose volume for subcutaneous and intravenous routes is 1 ml/kg. The latency times are typically recorded at 1.5, 3, 5, and 24 hours post-treatment. Much shorter times are recorded for an intravenous administration.

[1] = Oral syrup in human (Example IX); format: in vivo; details: one teaspoon of syrup, 70 kg adult human
Method: (§1) A composition for oral administration is prepared by combining the following ingredients:
The above ingredients are combined to produce a syrup and are packaged under sterile conditions in 6 oz. bottles.

[2] = Topical application to human forearm (Example X); format: in vivo; details: for local analgesic effect: replacing N-((4-(2-methyl-2-aminopropoxy)-3-methoxyphenyl)-methyl)-9Z-octadecenamide
Method: A composition for topical administration is prepared by combining the following ingredients:
The octadecenamide is dissolved in a solution containing the other ingredients. Application of 0.4 ml of the resulting liquid to a 80 cm^2 portion of the forearm of a 60 kg human produces local analgesia which lasts approximately two days.

[3] = Oral soft gelatin capsules in human (Example VIII); format: in vivo; details: two oral capsules, 225 mg of composition each, 60 kg human
Method: as §1
The octadecenamide is dissolved in the sesame oil with the aid of sonication and is packaged in soft gelatin capsules using methods known in the art.

[4] = Mouse Abdominal Constriction Assay (phenylquinone writhing); format: in vivo, male CF-1 mice; details: for % Analgesia (3 hrs post-dose): 3 hrs post-dose (time of peak analgesic effect)
Method: Compounds of the present invention are tested for analgesic activity using the mouse abdominal constriction assay. This assay is described in Hendershot and Forsaith, J. Pharmacol. Exo.
Male CF-1 mice (Charles River Breeding Laboratories, Inc.), weighing approximately 20 grams and food fasted overnight, are used in these assays. Test compounds are prepared for oral (p.o.) or subcutaneous (s.c.) administration, with compounds of the present invention being prepared in acidified (1N acetic acid) distilled deionized water so that the appropriate dose is given in 0.2 mls to a 20 gram mouse.
Ten minutes after the i.p. injection of phenylquinone, the number of full body writhes are counted for the succeeding ten minutes. Percent analgesia in this assay is calculated as follows: [formula]

[5] = 100 mg/kg oral, 24 hr post dose
[6] = 0.4 ml to 80 cm^2 of forearm, 60 kg human

COc1ccc2c3c1O[C@H]1[C@@H](O)C=C[C@H]4[C@@H](C2)N(C)CC[C@@]341 [Codeine Phosphate, reference compound]
Mean Latency Times (Rodent Hot Plate Test; 50 mg/kg oral, 1 hr post dose): 8.7 s
Mean Latency Times (Rodent Hot Plate Test; 50 mg/kg oral, 2 hr post dose): 6.4 s
Mean Latency Times (Rodent Hot Plate Test; 50 mg/kg oral, 4 hr post dose): 6.5 s
Mean Latency Times (Rodent Hot Plate Test; 100 mg/kg oral, 1 hr post dose): 8.5 s
Mean Latency Times (Rodent Hot Plate Test; 100 mg/kg oral, 2 hr post dose): 8.9 s
Mean Latency Times (Rodent Hot Plate Test; 100 mg/kg oral, 4 hr post dose): 6.0 s
Mean Latency Times (Rodent Hot Plate Test; 200 mg/kg oral, 1 hr post dose): 16.9 s
Mean Latency Times (Rodent Hot Plate Test; 200 mg/kg oral, 2 hr post dose): 21.0 s
Mean Latency Times (Rodent Hot Plate Test; 200 mg/kg oral, 4 hr post dose): 11.7 s
Mean Latency Times (Rodent Hot Plate Test; 400 mg/kg oral, 1 hr post dose): 26.5 s
Mean Latency Times (Rodent Hot Plate Test; 400 mg/kg oral, 2 hr post dose): 28.4 s
Mean Latency Times (Rodent Hot Plate Test; 400 mg/kg oral, 4 hr post dose): 24.6 s

CCCCCCCC/C=C\CCCCCCCCNC(=O)Cc1ccc(OCCN)c(OC)c1 [N-(9Z-octadecenyl)-4-(2-aminoethoxy)-3-methoxyphenylacetamide]
analgesia [1]: producing analgesia
reduction of inflammation [1]: reducing inflammation
local analgesic effect [2]: substantially similar local analgesic effect
Mean Latency Times (Rodent Hot Plate Test; 10 mg/kg oral, 1.5 hr post dose): 6.7 s
Mean Latency Times (Rodent Hot Plate Test; 10 mg/kg oral, 3 hr post dose): 15.3 s
Mean Latency Times (Rodent Hot Plate Test; 10 mg/kg oral, 5 hr post dose): 13.5 s
Mean Latency Times (Rodent Hot Plate Test; 10 mg/kg oral, 24 hr post dose): 9.1 s
Mean Latency Times (Rodent Hot Plate Test; 25 mg/kg oral, 1.5 hr post dose): 10.5 s
Mean Latency Times (Rodent Hot Plate Test; 25 mg/kg oral, 3 hr post dose): 11.2 s
Mean Latency Times (Rodent Hot Plate Test; 25 mg/kg oral, 5 hr post dose): 10.8 s
Mean Latency Times (Rodent Hot Plate Test; 25 mg/kg oral, 24 hr post dose): 8.0 s
Mean Latency Times (Rodent Hot Plate Test; 50 mg/kg oral, 1.5 hr post dose): 24.5 s
Mean Latency Times (Rodent Hot Plate Test; 50 mg/kg oral, 3 hr post dose): 12.2 s
Mean Latency Times (Rodent Hot Plate Test; 50 mg/kg oral, 5 hr post dose): 10.6 s
Mean Latency Times (Rodent Hot Plate Test; 50 mg/kg oral, 24 hr post dose): 15.9 s
Mean Latency Times (Rodent Hot Plate Test; 100 mg/kg oral, 1.5 hr post dose): 16.4 s
Mean Latency Times (Rodent Hot Plate Test; 100 mg/kg oral, 3 hr post dose): 13.4 s
Mean Latency Times (Rodent Hot Plate Test; 100 mg/kg oral, 5 hr post dose): 11.9 s
Mean Latency Times (Rodent Hot Plate Test; [5]): 21.5 s
analgesia [3]: increased analgesic effect
reduction of inflammation [3]: substantially similar reduction of inflammation

CCCCCCCC/C=C\CCCCCCCC(=O)NCc1ccc(OC[C@@H](N)C(C)C)c(OC)c1 [N-((4-(2(S)-amino-3-methylbutoxy)-3-methoxyphenyl)methyl)-9Z-octadecenamide]
analgesia [1]: substantially similar reduction of inflammation and analgesic effect
reduction of inflammation [1]: substantially similar reduction of inflammation
local analgesic effect [2]: substantially similar local analgesic effect
analgesia [3]: increased analgesic effect
reduction of inflammation [3]: substantially similar reduction of inflammation

CCCCCCCC/C=C\CCCCCCCC(=O)NCc1ccc(OCC(N)C(=O)O)c(OC)c1 (centres unmarked) [N-((4-(2-amino-2-carboxyethoxy)-3-methoxyphenyl)-methyl)-9Z-octadecenamide]
analgesia [1]: substantially similar reduction of inflammation and analgesic effect
reduction of inflammation [1]: substantially similar reduction of inflammation
local analgesic effect [2]: substantially similar local analgesic effect
analgesia [3]: increased analgesic effect
reduction of inflammation [3]: substantially similar reduction of inflammation

CCCCCCCC/C=C\CCCCCCCC(=O)NCc1ccc(OCC(N)CO)c(OC)c1 (centres unmarked) [N-((4-(2-amino-3-hydroxypropoxy)-3-methoxyphenyl)-methyl)-9Z-octadecenamide]
analgesia [1]: substantially similar reduction of inflammation and analgesic effect
reduction of inflammation [1]: substantially similar reduction of inflammation
local analgesic effect [2]: substantially similar local analgesic effect
analgesia [3]: increased analgesic effect
reduction of inflammation [3]: substantially similar reduction of inflammation

CCCCCCCCC(=O)NCc1ccc(OCCN)c(OC)c1 [N-((4-(2-aminoethoxy)-3-methoxyphenyl)-methyl)-nonanamide]
analgesia [1]: substantially similar reduction of inflammation and analgesic effect
reduction of inflammation [1]: substantially similar reduction of inflammation
Mean Latency Times (Rodent Hot Plate Test; 50 mg/kg oral, 3 hr post dose): 7.5 s
Mean Latency Times (Rodent Hot Plate Test; 50 mg/kg oral, 5 hr post dose): 7.2 s
Mean Latency Times (Rodent Hot Plate Test; 50 mg/kg oral, 24 hr post dose): 8.1 s
Mean Latency Times (Rodent Hot Plate Test; 100 mg/kg oral, 3 hr post dose): 9.9 s
Mean Latency Times (Rodent Hot Plate Test; 100 mg/kg oral, 5 hr post dose): 10.2 s
Mean Latency Times (Rodent Hot Plate Test; [5]): 12.3 s
Mean Latency Times (Rodent Hot Plate Test; 200 mg/kg oral, 3 hr post dose): 10.8 s
Mean Latency Times (Rodent Hot Plate Test; 200 mg/kg oral, 5 hr post dose): 16.4 s
Mean Latency Times (Rodent Hot Plate Test; 200 mg/kg oral, 24 hr post dose): 22.0 s
Mean Latency Times (Rodent Hot Plate Test; 300 mg/kg oral, 3 hr post dose): 14.1 s
Mean Latency Times (Rodent Hot Plate Test; 300 mg/kg oral, 5 hr post dose): 14.6 s
Mean Latency Times (Rodent Hot Plate Test; 300 mg/kg oral, 24 hr post dose): 20.3 s
analgesia [3]: increased analgesic effect
reduction of inflammation [3]: substantially similar reduction of inflammation

CCCCCCCC/C=C\CCCCCCCC(=O)NCc1ccc(OCC(C)(C)N)c(OC)c1 [N-((4-(2-methyl-2-aminopropoxy)-3-methoxyphenyl)-methyl)-9Z-octadecenamide]
duration of local analgesia [2, 6]: approximately two
skin irritation [2, 6]: Little or no skin irritation
analgesia [3]: increased analgesic effect
reduction of inflammation [3]: substantially similar reduction of inflammation

CCCCCCCCC(=O)NCc1ccc(OCC(C)(C)N)c(OC)c1 [N-((4-(2-methyl-2-aminopropoxy)-3-methoxyphenyl)-methyl)-nonanamide]
local analgesic effect [2]: substantially similar local analgesic effect

CCCCCCCC/C=C\CCCCCCCC(=O)NCc1ccc(OCCC(C)COCC(C)(C)N)c(OC)c1 (centres unmarked) [N-((4-(2-methyl-2-aminopropoxy)-3-methylbutoxy)-3-methoxyphenyl)methyl)-9Z-octadecenamide]
analgesia [1]: substantially similar reduction of inflammation and analgesic effect
reduction of inflammation [1]: substantially similar reduction of inflammation

CCCCCCCC/C=C\CCCCCCCC(=O)NCc1ccc(O)c(OC)c1 [N-Vanillyloleamide, N-vanillyloleamide, reference compound]
% Analgesia (3 hrs post-dose) ([4]; 0.75 mg/kg subcutaneous): 35.4%
% Analgesia (3 hrs post-dose) ([4]; 1.5 mg/kg subcutaneous): 62.8%
% Analgesia (3 hrs post-dose) ([4]; 2.25 mg/kg subcutaneous): 76.1%
% Analgesia (3 hrs post-dose) ([4]; 100 mg/kg oral): 36%
% Analgesia (3 hrs post-dose) ([4]; 200 mg/kg oral): 60%
% Analgesia (3 hrs post-dose) ([4]; 400 mg/kg oral): 79%
time of peak analgesic effect ([4]; mouse, in vivo): 3 hours post-dose

CCCCCCCCNC(=O)Cc1ccc(OCCN)c(OC)c1 [N-octanyl-4-(2-aminoethoxy)-3-methoxyphenylacetamide]
analgesia [1]: substantially similar reduction of inflammation and analgesic effect
reduction of inflammation [1]: substantially similar reduction of inflammation
local analgesic effect [2]: substantially similar local analgesic effect
analgesia [3]: increased analgesic effect
reduction of inflammation [3]: substantially similar reduction of inflammation
